This note sets out measurements from US8674118B2, “Compounds and methods for the treatment or prevention of flavivirus infections” (priority 2005, dated 2014).

Structures can show the parent of a compound that is named as a salt. Where two headings read alike, the source gives them in different places. Where only a bound is given, the exact number is not on record here.

This test has as its system HCV RNA replication (replicon cell lines Huh-7, 5.2 and ET). Nature of the test: Cell-Based Luciferase Reporter HCV RNA Replication Assay. The following applies: Huh-7, 5.2 or ET replicon cells, luciferase counts after 4 days incubation, read-out: IC50. For orientation: A reporter such as luciferase makes a cellular process visible.

In the case of `COCOC1CCC(N(C(=O)C2CCC(C)CC2)c2cc(C3CCC(C)(C)CC3)sc2C(=O)O)CC1` (stereo not drawn) [Compound 116, 5-(4,4-dimethyl-cyclohexyl)-3-[(4-trans-methoxymethoxy-cyclohexyl)-(4-trans-methyl-cyclohexanecarbonyl)-amino]-thiophene-2-carboxylic acid], the IC50 (as a rule, the concentration that gives 50% inhibition) (Hepatitis C virus, Huh-7, 96 h) was below 5 µM.
As to `CC1(C)CCC(c2cc(N(C(=O)[C@H]3CC[C@H](C)CC3)[C@H]3CC[C@@H](n4cncn4)CC3)c(C(=O)O)s2)CC1` [Compound 117, 5-(4,4-dimethyl-cyclohexyl)-3-[(trans-4-methyl-cyclohexanecarbonyl)-(cis-4-[1,2,4]triazol-1-yl-cyclohexyl)-amino]-thiophene-2-carboxylic acid; hydrochloride], the IC50 (Hepatitis C virus, Huh-7, 96 h) was below 5 µM.
On to `CC1CCC(C(=O)N(c2cc(C3CCC(C)(C)CC3)sc2C(=O)O)C2CCC(n3cncn3)CC2)CC1` (stereo not drawn) [Compound 118, 5-(4,4-dimethyl-cyclohexyl)-3-[(trans-4-methyl-cyclohexanecarbonyl)-(trans-4-[1,2,4]triazol-1-cyclohexyl)-amino]-thiophene-2-carboxylic acid; hydrochloride], for which, for the setting “Hepatitis C virus, Huh-7, 96 h”, the IC50 was below 5 µM.
As to `COC1CCC(N(C(=O)C2CCC(C)CC2)c2cc(C3CCC(F)(F)CC3)sc2C(=O)O)CC1` (stereo not drawn) [Compound 122, 5-(4,4-difluoro-cyclohexyl)-3-[(4-trans-methoxy-cyclohexyl)-(4-trans-methyl-cyclohexanecarbonyl)-amino]-thiophene-2-carboxylic acid], the IC50 (Hepatitis C virus, Huh-7, 96 h) was below 5 µM.
For `COC1CCC(N(C(=O)C2CCC(C)CC2)c2cc(C3CC=C(F)CC3)sc2C(=O)O)CC1` (stereo not drawn) [Compound 123, RS-5-(4-fluoro-cyclohex-3-enyl)-3-[(4-trans-methoxy-cyclohexyl)-(4-trans-methyl-cyclohexanecarbonyl)-amino]-thiophene-2-carboxylic acid], the IC50 (Hepatitis C virus, Huh-7, 96 h) is below 5 µM.
On the same count and under the same terms, as for `CCOCO[C@H]1CC[C@H](N(c2cc(C3=CCCCC3)sc2C(=O)O)C(=O)[C@H]2CC[C@H](C)CC2)CC1` [Compound 125, 5-cyclohex-1-enyl-3-[(trans-4-ethoxymethoxy-cyclohexyl)-(trans-4-methyl-cyclohexanecarbonyl)-amino]-thiophene-2-carboxylic acid], the figure is below 5 µM; as for `CC1CCC(C(=O)N(c2cc(C3=CCCCC3)sc2C(=O)O)C2CCN(c3ccccc3)CC2)CC1` (centres unmarked) [Compound 127, 5-cyclohex-1-enyl-3-[(trams, 4-methyl-cyclohexanecarbonyl)-(1-phenyl-piperidin-4-yl)-amino]-thiophene-2-carboxylic acid], below 5 µM.
On to `CC1CCC(C(=O)N(c2cc(C3=CCCCC3)sc2C(=O)O)C2CCC3(CC2)CC(=O)N(C)C3)CC1` (stereo not drawn) [Compound 128, 5-cyclohex-1-enyl-3-[(trans-4-methyl-cyclohexanecarbonyl)-trans(2-methyl-3-oxo-2-aza-spiro[4.5]dec-8-yl)-amino]-thiophene-2-carboxylic acid], for which the IC50 is below 5 µM.
For the molecule `CCN1CC2(CCC(N(C(=O)C3CCC(C)CC3)c3cc(C4=CCCCC4)sc3C(=O)O)CC2)CC1=O` (stereo not drawn) [Compound 129, 5-cyclohex-1-enyl-3-[trans(2-ethyl-33-oxo-2-aza-spiro[4.5]dec-8-yl)-(trans-4-methylcyclohexanecarbonyl)-amino]-thiophene-2-carboxylic acid], the half-inhibitory concentration (IC50) (Hepatitis C virus, Huh-7, 96 h) is below 5 µM.
On to `CCN1CC2(CCC(N(C(=O)C3CCC(C)CC3)c3cc(C4=CCCCC4)sc3C(=O)O)CC2)CC1=O` (stereo not drawn) [Compound 130, 5-cyclohex-1-enyl-3-[cis(2-ethyl-3-oxo-2-aza-spiro[4.5]dec-8-yl)-(trans-4-methylcyclohexanecarbonyl)-amino]-thiophene-2-carboxylic acid], for which the IC50 is below 5 µM.
For `COCC1CCC(N(C(=O)C2CCC(C)CC2)c2cc(C3=CCCCC3)sc2C(=O)O)CC1` (stereo not drawn) [Compound 131, 5-cyclohex-1-enyl-3-[(4-cis-methoxymethyl-cyclohexyl)-(4-trans-methyl-cyclohexanecarbonyl)-amino]-thiophene-2-carboxylic acid], the IC50 was below 5 µM.
With `COCC1CCC(N(C(=O)C2CCC(C)CC2)c2cc(C3=CCCCC3)sc2C(=O)O)CC1` (stereo not drawn) [Compound 132, 5-cyclohex-1-enyl-3-[(4-trans-methoxymethyl-cyclohexyl)-(4-trans-methyl-cyclohexanecarbonyl)-amino]-thiophene-2-carboxylic acid], the IC50 was below 5 µM.
Take `CC(C)C(=O)N[C@H]1CC[C@@H](N(c2cc(C3=CCCCC3)sc2C(=O)O)C(=O)[C@H]2CC[C@H](C)CC2)CC1` [Compound 133, 5-cyclohex-1-enyl-3-[(cis-4-isobutyrylamino-cyclohexyl)-(trans-4-methyl-cyclohexanecarbonyl)-amino]-thiophene-2-carboxylic acid]: under “Hepatitis C virus, Huh-7, 96 h”, the IC50 is below 5 µM.
Turning to `CC(C)C(=O)N[C@H]1CC[C@H](N(c2cc(C3=CCCCC3)sc2C(=O)O)C(=O)[C@H]2CC[C@H](C)CC2)CC1` [Compound 134, 5-cyclohex-1-enyl-3-[(trans-4-isobutyrylamino-cyclohexyl)-(trans-4-methyl-cyclohexanecarbonyl)-amino]-thiophene-2-carboxylic acid], the IC50 (Hepatitis C virus, Huh-7, 96 h) is below 5 µM.
The same measure, in the same setting: in the case of `CC1(C)CCC(c2cc(N(C(=O)[C@H]3CC[C@H](C)CC3)[C@H]3CC[C@H](n4ccnn4)CC3)c(C(=O)O)s2)CC1` [Compound 135, 5-(4,4-dimethyl-cyclohexyl)-3-[(trans-4-methyl-cyclohexanecarbonyl)-(trans-4-[1,2,3]triazol-1-yl-cyclohexyl)-amino]-thiophene-2-carboxylic acid] it was below 5 µM; in that of `C[C@H]1CC[C@H](C(=O)N(c2ccc3c(c2)OCO3)c2cc(C3=CCCCC3)sc2C(=O)O)CC1` [Compound 136, 3-[benzo[1,3]dioxol-5-yl-(trans-4-methyl-cyclohexanecarbonyl)-amino]-5-cyclohex-1-enyl-thiophene-2-carboxylic acid], below 5 µM.
In the case of `COC1CCC(N(C(=O)C2CCC(C)CC2)c2cc(C3CCC(F)CC3)sc2C(=O)O)CC1` (stereo not drawn) [Compound 137, 5-(4-ciz-trans-fluoro-cyclohexyl)-3-[(4-trans-methoxy-cyclohexyl)-(4-trans-methyl-cyclohexanecarbonyl)-amino]-thiophene-2-carboxylic acid], the 50% inhibitory concentration (IC50) (Hepatitis C virus, Huh-7, 96 h) was below 5 µM.
Same read-out and setting: as for `COC1CCC(N(C(=O)C2CCC(C)CC2)c2cc(C3=CCCC(C)(C)C3)sc2C(=O)O)CC1` (stereo not drawn) [Compound 138, 5-(5,5-dimethyl-cyclohex-1-enyl)-3-[(4-trans-methoxy-cyclohexyl)-(4-trans-methyl-cyclohexanecarbonyl)-amino]-thiophene-2-carboxylic acid], the figure is below 5 µM; as for `CC(C)C(=O)N1CCC(N(c2cc(C3=CCCCC3)sc2C(=O)O)C(=O)[C@H]2CC[C@H](C)CC2)CC1` [Compound 141, 5-Cyclohex-1-enyl-3-[(1-isobutyryl-piperidin-4-yl)-(trans-4-methylcyclohexanecarbonyl)-amino]-thiophene-2-carboxylic acid], below 5 µM; as for `CSCO[C@H]1CC[C@H](N(c2cc(C3=CCCCC3)sc2C(=O)O)C(=O)[C@H]2CC[C@H](C)CC2)CC1` [Compound 142, 5-cyclohex-1-enyl-3-[(trans-4-methyl-cyclohexanecarbonyl)-(trans-4-methylsulfanylmethoxy-cyclohexyl)-amino]-thiophene-2-carboxylic acid], below 5 µM.
